From patent publication US11118065B2, “Fluorenylaminoketone photoinitiator, preparation method thereof, and UV photocurable composition containing same” (CHANGZHOU TRONLY ADVANCED ELECTRONIC MATERIALS CO., LTD., priority 2017, dated 2021)

Experiment: Test of solubility property
Details: for HDDA (g/100 g): largest weight dissolved in 100 g of 1,6-hexanediol diacrylate (HDDA) at 20° C.; for Acetone (g/100 g): largest weight dissolved in 100 g of acetone at 20° C.

Structure (SMILES)	HDDA (g/100 g)	Acetone (g/100 g)	solubility (in the UV curing ink formulation, about 10% of butanone solvent required to dissolve completely)
C=CCC1(CC=C)c2cc(OC)ccc2-c2ccc(C(=O)C(C)(C)N3CCOCC3)cc21 [Compound 4]	>15	>30	
CCCCC1(CCCC)c2ccccc2-c2ccc(C(=O)C(C)(C)N3CCOCC3)cc21 [Compound 5]	>15	>30	
CCCCC1(CCCC)c2cc(C(=O)c3ccccc3)ccc2-c2ccc(C(=O)C(C)(C)N3CCOCC3)cc21 [Compound 9]	>15	>30	
CCCCC1(CCCC)c2cc(C(=O)C(CC)(Cc3ccccc3)N(C)C)ccc2-c2ccc(N3CCOCC3)cc21 (stereo not shown) [Compound 14]	>15	>30	
CC(C)(C(=O)c1ccc2c(c1)Cc1cc(C(=O)C(C)(C)N3CCCCC3)ccc1-2)N1CCCCC1 [Compound 24]	>15	>30	
C=CCC1(CC=C)c2ccccc2-c2ccc(C(=O)C(CC)(Cc3ccccc3)N(C)C)cc21 (stereo not shown) [Compound 34]	>15	>30	
CCC(Cc1ccccc1)(C(=O)c1ccc2c(c1)C(C)(C)c1cc(N3CCOCC3)ccc1-2)N(C)C (stereo not shown) [Compound 38, 2-benzyl-2-dimethylamino-9,9-dimethyl-1-(7-morpholinofluorenyl)butanone]	>15	>30	
C=CCC(CC)(C(=O)c1ccc2c(c1)C(C)(C)c1cc(N3CCCCC3)ccc1-2)N(C)C (stereo not shown) [Compound 39, 2-allyl-2-dimethylamino-9,9-dimethyl-2-(7-piperidinylfluorenyl)butanone]	>15	>30	
CCCCC1(CCCC)c2ccccc2-c2ccc(C(=O)C(CC)(Cc3ccccc3)N(C)C)cc21 (stereo not shown) [Compound 40, 2-benzyl-2-dimethylamino-9,9-dibutylfluorene-1-butanone]	>15	>30	
CCCCC1(CCCC)c2cc(C(=O)c3ccccc3)ccc2-c2ccc(C(=O)C(CC)(Cc3ccccc3)N(C)C)cc21 (stereo not shown) [Compound 41, 2-benzyl-2-dimethylamino-9,9-dibutyl-1-(7-benzoyl)butanone]	>15	>30	
CCCCN(CCCC)c1ccc2c(c1)C(C)(C)c1cc(C(=O)C(CC)(Cc3ccccc3)N(C)C)ccc1-2 (stereo not shown) [Compound 42]	>15	>30	
CCCC1(CCC)c2cc(C(=O)C(CC)(Cc3ccccc3)N(C)C)ccc2-c2ccc(N3CCCCC3)cc21 (stereo not shown) [Compound 43]	>15	>30	
CCC(Cc1ccccc1)(C(=O)c1ccc2c(c1)C(C)(C)c1cc(N(CCO)CCO)ccc1-2)N(C)C (stereo not shown) [Compound 45]	>15	>30	
CCC(Cc1ccccc1)(C(=O)c1ccc(N2CCOCC2)cc1)N(C)C (stereo not shown) [Irgacure 369, 2-benzyl-2-dimethylamino-1-(4-morpholinophenyl)butanone, reference compound]	5	17	relatively poor
CCC(Cc1ccc(C)cc1)(C(=O)c1ccc(N2CCOCC2)cc1)N(C)C (stereo not shown) [Irgacure 379, 2-(4-methylbenzyl)-2-dimethylamino-1-(4-morpholinophenyl)butanone, reference compound]	11	24	
